Type in all cases: cell-based
The test system of assay [1] is SW480 (colon cancer). Briefly: Antiproliferative activity (CCK-8 cell viability), SW480. The note with it: Homo sapiens, 72 h, read-out: Antiproliferative activity in cancerous cells, SW480 (inhibition of cell growth); for inhibition at 3.3 µM: Compound concentration: 3.3 μM; for inhibition at 10 µM: Compound concentration: 10 μM; for inhibition at 30 µM: Compound concentration: 30 μM. The procedure, abridged:
(§1)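 Cells grown in DMEM (HepG2, SW480), MEM (HeLa) or F-12K (A549), each with 10% FBS, then exposed to compound at 3.3, 10 or 30 μM for 72 h at 37 °C. CCK-8 absorbance at 450 nm; viability expressed as percent of DMSO-treated cells, graded as growth inhibition bands.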

For assay [2], the system named is HeLa (cervical cancer). Nature of the assay: Antiproliferative activity (CCK-8 cell viability), HeLa. The note with it: Homo sapiens, 72 h; for inhibition at 3.3 µM: Compound concentration: 3.3 μM; for inhibition at 10 µM: Compound concentration: 10 μM; for inhibition at 30 µM: Compound concentration: 30 μM. In outline: as §1
Assay [3] deals with HepG2 (liver cancer). Nature of the assay: Antiproliferative activity (CCK-8 cell viability), HepG2. Particulars: Homo sapiens, 72 h; for inhibition at 3.3 µM: Compound concentration: 3.3 μM; for inhibition at 10 µM: Compound concentration: 10 μM; for inhibition at 30 µM: Compound concentration: 30 μM. The procedure, abridged:
as §1

For assay [4], the system named is A549 (lung adenocarcinoma). Nature of the assay: Antiproliferative activity (CCK-8 cell viability), A549. The note with it: Homo sapiens, 72 h; for inhibition at 3.3 µM: Compound concentration: 3.3 μM; for inhibition at 10 µM: Compound concentration: 10 μM; for inhibition at 30 µM: Compound concentration: 30 μM. In outline: as §1
For assay [5], the system named is B16F10 (malignant melanoma). Briefly: Antiproliferative activity (CCK-8 cell viability), B16F10. The note with it: Mus musculus, 72 h; for inhibition at 3.3 µM: B16-F10, Compound concentration: 3.3 μM; for inhibition at 10 µM: B16-F10, Compound concentration: 10 μM; for inhibition at 30 µM: B16-F10, Compound concentration: 30 μM. In outline:
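B16F10 melanoma cells grown in DMEM with 10% FBS were plated in 96-well plates at 2,000-5,000 cells/well. After attachment they were exposed to compound in medium for 72 h at 37° C. CCK-8 solution (10 μL) was then added, and after 4 h at 37° C absorbance was read at 450 nm.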

For assay [6], the system named is A431 (epidermoid carcinoma). Briefly: Antiproliferative activity (CCK-8 cell viability), A431. The note with it: Homo sapiens, 72 h; for inhibition at 3.3 µM: A-431, Compound concentration: 3.3 μM; for inhibition at 10 µM: A-431, Compound concentration: 10 μM; for inhibition at 30 µM: A-431, Compound concentration: 30 μM. In outline: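 A431 epidermoid carcinoma cells grown in DMEM with 10% FBS were plated at 2,000-5,000 cells/well in 96-well plates. After attachment they were exposed to compound at 3.3 μM, 10 μM, or 30 μM for 72 h at 37° C. Viability was then assessed by CCK-8 against DMSO vehicle-treated wells.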

Assay [7] relates to MDA-MB-231 (breast cancer). Nature of the assay: Antiproliferative activity (CCK-8 cell viability), MDA-MB-231. Particulars: Homo sapiens, 72 h, read-out: Antiproliferative activity in cancerous cells, MDA-MB-231 (inhibition of cell growth); for inhibition at 3.3 µM: Compound concentration: 3.3 μM; for inhibition at 10 µM: Compound concentration: 10 μM; for inhibition at 30 µM: Compound concentration: 30 μM. The procedure, abridged: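 MDA-MB-231 breast cancer cells, grown in DMEM with 10% FBS, were plated in 96-well plates at 2,000-5,000 cells/well. Once attached, they were exposed to compound and incubated at 37° C. for 72 h. Viability was then measured with CCK-8 (10 μL per well, 4 h at 37° C.) by absorbance at 450 nm, relative to DMSO vehicle wells.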

The test system of assay [8] is alpha-smooth muscle actin (α-SMA). Nature of the assay: Inhibition of TGF-β induced expression of alpha-smooth muscle actin (α-SMA) in CFSC cells (western blot). Particulars: compound at 10 μM, TGF-β (10 ng/mL), 24 hours, band intensity vs TGF-β only. The procedure, abridged:
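Values are percent reduction of α-SMA band intensity relative to cells given TGF-β alone, quantified by Western blot densitometry with β-actin probed. Compound was applied at 10 μM alongside 10 ng/mL TGF-β to serum-free CFSC cultures for 24 h at 37 °C.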
For orientation: In western blotting, separated proteins are transferred to a membrane and probed.

[9] abbreviates: read-out: Antiproliferative activity in cancerous cells, HELA (inhibition of cell growth).
The mark [10] stands for this setting: read-out: Antiproliferative activity in cancerous cells, HepG2 (inhibition of cell growth).
Where [11] appears, read: read-out: Antiproliferative activity in cancerous cells, A549 (inhibition of cell growth).
The mark [12] stands for this setting: read-out: Antiproliferative activity in cancerous cells, B16F10 (inhibition of cell growth).
[13] abbreviates: read-out: Antiproliferative activity in cancerous cells, A431 (inhibition of cell growth).
The mark [14] stands for this setting: read-out: Antiproliferative activity in cancerous cells, A549.
Setting [15] is: read-out: Antiproliferative activity in cancerous cells, B16F10.
Where [16] appears, read: read-out: Antiproliferative activity in cancerous cells, A431.

SMILES strings stand for the structures. Read-outs that look alike come from different tables or passages of the source.

Consider `CC1=C(CC(=O)O)c2ccc(F)c(F)c2/C1=C/c1cccc(Oc2ccccc2)c1` [E4, (E)-2-(6,7-Difluoro-2-methyl-1-(3-phenoxybenzylidene)-1H-inden-3-yl)acetic acid], for which the inhibition at 3.3 µM was < 30% in assay [1]; 30 to 50% in assay [2] (setting [9]); < 30% in assay [3] (setting [10]); < 30% in assay [4] (setting [11]); < 30% in assay [5] (setting [12]); < 30% in assay [6] (setting [13]). For the same molecule, the inhibition at 3.3 µM in assay [7] is < 30%. In addition, the inhibition at 10 µM in assay [1] was < 30%; in assay [2] (setting [9]), ≥ 50%; in assay [3] (setting [10]), 30 to 50%; in assay [4] (setting [11]), ≥ 50%; in assay [5] (setting [12]), ≥ 50%; in assay [6] (setting [13]), < 30%. Moreover, the inhibition at 10 µM in assay [7] is 30 to 50%; in assay [8] it was > 80%. The inhibition at 30 µM in assay [1], in assay [2] (setting [9]), in assay [3] (setting [10]), in assay [4] (setting [11]), in assay [5] (setting [12]) and in assay [6] (setting [13]) was ≥ 50% each time. The inhibition at 30 µM in assay [7] is ≥ 50%.
On to `COc1ccc2c(c1)C(CC(=O)O)=C(C)/C2=C/c1cccc(COc2ccccc2)c1` [B20, (Z)-2-(5-Methoxy-2-methyl-1-(3-(phenoxymethyl)benzylidene)-1H-inden-3-yl)-acetic acid], for which the inhibition at 3.3 µM is 30 to 50% in assay [1]; < 30% in assay [2] (setting [9]); < 30% in assay [3] (setting [10]); < 30% in assay [4] (setting [11]); < 30% in assay [5] (setting [12]); < 30% in assay [6] (setting [13]). Besides, in assay [7], the inhibition at 3.3 µM lay within 30 to 50%. For the same molecule, the inhibition at 10 µM was 30 to 50% in assay [1]; 30 to 50% in assay [2] (setting [9]); < 30% in assay [3] (setting [10]); < 30% in assay [4] (setting [11]); < 30% in assay [5] (setting [12]); < 30% in assay [6] (setting [13]). Besides, the inhibition at 10 µM is 30 to 50% in assay [7] and > 80% in assay [8]. Besides, the inhibition at 30 µM in assay [4] (setting [14]), in assay [5] (setting [15]) and in assay [6] (setting [16]) was < 30% in each case.
On to `CC1=C(CC(=O)O)c2cc(F)cc(F)c2/C1=C/c1cccc(COc2ccccc2)c1` [E7, (E)-2-(5,7-Difluoro-2-methyl-1-(3-(phenoxymethyl)benzylidene)-1H-inden-3-yl)-acetic acid], for which the inhibition at 3.3 µM in assay [1] is ≥ 50%; in assay [2] (setting [9]) it was ≥ 50%; in assay [3] (setting [10]), 30 to 50%; in assay [4] (setting [11]) it was ≥ 50%; in assay [5] (setting [12]) it was < 30%; in assay [6] (setting [13]) it was 30 to 50%. The inhibition at 3.3 µM in assay [7] is < 30%. Moreover, the inhibition at 10 µM in assay [1] was ≥ 50%; in assay [2] (setting [9]), ≥ 50%; in assay [3] (setting [10]), ≥ 50%; in assay [4] (setting [11]) it was ≥ 50%; in assay [5] (setting [12]), < 30%; in assay [6] (setting [13]) it was ≥ 50%. Also, the inhibition at 10 µM in assay [7] is ≥ 50%; in assay [8], > 80%. Besides, the inhibition at 30 µM in assay [1], in assay [2] (setting [9]), in assay [3] (setting [10]), in assay [4] (setting [11]), in assay [5] (setting [12]) and in assay [6] (setting [13]) was ≥ 50% in each case. Moreover, the inhibition at 30 µM in assay [7] is ≥ 50%.
`CC1=C(CC(=O)NCCN2CCOCC2)c2cc(F)ccc2/C1=C\c1ccc(Oc2ccc(F)cc2)cc1` [C39, (Z)-2-(5-Fluoro-1-(4-(4-fluorophenoxy)benzylidene)-2-methyl-1H-inden-3-yl)-N-(2-morpholinoethyl)acetamide]: the inhibition at 3.3 µM in assay [1], in assay [2] (setting [9]), in assay [3] (setting [10]), in assay [4] (setting [11]), in assay [5] (setting [12]) and in assay [6] (setting [13]) was < 30% throughout. Further, the inhibition at 3.3 µM in assay [7] is < 30%. Further, the inhibition at 10 µM in assay [1] is < 30%; in assay [2] (setting [9]) it was < 30%; in assay [3] (setting [10]) it was < 30%; in assay [4] (setting [11]), 30 to 50%; in assay [5] (setting [12]), < 30%; in assay [6] (setting [13]), < 30%. Also, the inhibition at 10 µM in assay [7] is < 30%; in assay [8], 50 to 80%. The inhibition at 30 µM in assay [2] (read-out: Antiproliferative activity in cancerous cells, HELA) was < 30%; in assay [3] (read-out: Antiproliferative activity in cancerous cells, HepG2) it was < 30%; in assay [4] (setting [14]) it was 30 to 50%; in assay [5] (setting [15]), < 30%; in assay [6] (setting [16]), < 30%.
Turning to `C/C(=C1/C=C(CC(=O)O)c2ccccc21)c1ccc(F)cc1` [E14, (E)-2-(1-(1-(4-Fluorophenyl)ethylidene)-1H-inden-3-yl)acetic acid], the inhibition at 3.3 µM in assay [1] was < 30%; in assay [2] (setting [9]) it was 30 to 50%; in assay [3] (setting [10]), < 30%; in assay [4] (setting [11]) it was < 30%; in assay [5] (setting [12]) it was < 30%; in assay [6] (setting [13]), < 30%. The inhibition at 3.3 µM in assay [7] was 30 to 50%. Further, the inhibition at 10 µM is < 30% in assay [1]; 30 to 50% in assay [2] (setting [9]); < 30% in assay [3] (setting [10]); < 30% in assay [4] (setting [11]); < 30% in assay [5] (setting [12]); < 30% in assay [6] (setting [13]). The values for the inhibition at 10 µM in assay [7] and in assay [8] were 30 to 50% and < 30%, respectively. Besides, the inhibition at 30 µM was 30 to 50% in assay [1]; ≥ 50% in assay [2] (setting [9]); < 30% in assay [3] (setting [10]); 30 to 50% in assay [4] (setting [11]); 30 to 50% in assay [5] (setting [12]); < 30% in assay [6] (setting [13]). Further, the inhibition at 30 µM in assay [7] fell in the range of 30 to 50%.

Values taken from patent US20260184663A1, “INDENE COMPOUNDS, PHARMACEUTICAL COMPOSITIONS THEREOF, AND THEIR THERAPEUTIC APPLICATIONS” (NucMito Pharmaceuticals co. Ltd., priority 2022, published 2026).
